Experimental data published in PubChem BioAssay (NCI).
“And” between values parts separate entries of the source, which are not always exact repeats. Equal entries are not always repeated.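 Tested at 5 concentrations; 48 h exposure; 96-well plates; endpoints linearly interpolated, else capped at highest concentration. GI50 marks 50% less growth. The concentration for full growth arrest is given as TGI.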

Columns and labels:
Assay in all cases: NCI anticancer screen, dose series, 48 h
[1] = test system: A549 NSCLC
[2] = test system: HCT-116 colon
[3] = test system: MDA-N
[4] = test system: NCI-H226 lung
[5] = test system: NCI/ADR-RES ovarian
[6] = test system: OVCAR-3 ovarian
[7] = test system: SR leukemia
[8] = test system: TK-10 renal
[9] = test system: UACC-62 melanoma
[10] = test system: MOLT-4 leukemia

SMILES	TGI [1]	TGI [2]	TGI [3] [µM]	TGI [4]	TGI [5]	TGI [6]	TGI [7] [µM]	TGI [8] [µM]	TGI [9]	TGI [10]	GI50 [1] [µM]	GI50 [2] [µM]	GI50 [10] [µM]	GI50 [4] [µM]	GI50 [5] [µM]	GI50 [6] [µM]	GI50 [9] [µM]
CN(CC(=O)O)Cc1c(O)c(Cl)cc(Cl)c1Cl	> 100 µM	> 100 µM	> 100	92.1 µM	> 100 µM	38.8 µM	90.9	> 100	77.3 µM	–	–	–	–	–	–	–	–
OC[C@H]1NC[C@@H](O)[C@@H](O)[C@H]1O	–	> 100 µM	> 100	> 100 µM	> 100 µM	> 100 µM	> 100	> 100	> 100 µM	> 100 µM	–	–	–	–	–	–	–
CSc1nc(CO)c(CO)n1C	> 100 µM	> 100 µM	–	> 100 µM	> 100 µM	> 100 µM	–	–	> 100 µM	> 100 µM	–	–	–	–	–	–	–
CCCCN1C(=O)c2c(Br)sc(Br)c2C1=O	70.3 µM	65.6 µM	> 100	> 100 µM	88.2 µM	–	85.6	> 100	> 100 µM	70.6 µM	–	–	–	–	–	–	–
Cc1[nH]c(=O)[nH]c(=O)c1/C=C/C(=O)NC(CO)CS(=O)CS(C)=O (stereo not given)	332 µM	129 µM	–	77.3 µM	263 µM	31.1 µM	–	–	56.3 µM	66.5 µM	–	–	–	–	–	–	–
COc1ccccc1CC(C)N (stereo not given)	> 100 µM	> 100 µM	–	> 100 µM	–	> 100 µM	–	> 100	> 100 µM	–	–	–	–	–	–	–	–
COc1ccc(-c2nc3c(nc2-c2ccc(OC)cc2)C(N)=NS(=O)(=O)N3)cc1	> 100 µM	–	–	> 100 µM	–	> 100 µM	–	> 100	> 100 µM	> 100 µM	–	–	–	–	–	–	–
CCOC(=O)Cn1c2ccc(Br)cc2c2nc3ccccc3nc21	> 100 µM	> 100 µM	> 100	> 100 µM	> 100 µM	> 100 µM	> 100	> 100	> 100 µM	> 100 µM	–	–	–	–	–	–	–
Nc1[nH]c(=S)nc2nc3c(c(-c4ccccc4)c12)CCCC3	> 100 µM	> 100 µM	> 100	–	> 100 µM	> 100 µM	> 100	> 100	> 100 µM	> 100 µM	–	–	–	–	–	–	–
CC1C(=O)CC(c2cccs2)N(N=O)C1c1cccs1 (stereo not given)	> 100 µM	> 100 µM	–	> 100 µM	> 100 µM	> 79.5 µM	–	–	> 100 µM	73.7 µM	–	–	–	–	–	–	–
COC(=O)C1=C(C)N2CCSC2(C)C(C(=O)OC)C1c1cccc(Cl)c1 (stereo not given)	65.3 µM	34.9 µM	–	47.4 µM	–	34.6 µM	66.7	> 100	32.6 µM	45.6 µM	–	–	–	–	–	–	–
NC(CCOCCP(=O)(O)CCC1C=CC=CC1)C(=O)O (stereo not given)	> 100 µM	> 100 µM	> 100	–	> 100 µM	> 100 µM	> 100	> 100	> 100 µM	> 100 µM	–	–	–	–	–	–	–
CCN(CC)CC[n+]1ccc2c(C)c3[nH]c4ccc(O)cc4c3c(C)c2c1	30.6 µM and 43.6 µM	26.7 µM and 30.8 µM	25.7	6.64 µM and 3.58 µM	79.6 µM and 102 µM	57.9 µM and 51.9 µM	1.74	–	23.1 µM and 48.9 µM	11 µM and 12.4 µM	1.5	4.36	0.181	0.631	21.7	6.62	5.41
CCc1n[nH]c(=O)n1/N=C(\C)c1ccc([N+](=O)[O-])cc1	> 100 µM	> 100 µM	> 100	> 100 µM	> 100 µM	> 100 µM	–	> 100	> 100 µM	> 100 µM	–	–	–	–	–	–	–
CCOC(=O)CCC(C(=O)OCC)n1nc2ccc(Nc3c(C)[n+]([O-])c4cc(F)c(OCC)cc4[n+]3[O-])cc2n1 (stereo not given)	> 100 µM	> 100 µM	> 100	> 100 µM	> 100 µM	> 100 µM	> 100	> 100	> 100 µM	> 100 µM	–	–	–	–	–	–	–
N#CC1=C2SCCN2C(=O)C(C#N)C12CCCCC2 (stereo not given)	> 100 µM	> 100 µM	> 100	> 100 µM	> 100 µM	> 100 µM	> 100	> 100	> 100 µM	> 100 µM	–	–	–	–	–	–	–
COc1ccc(NC(C)=O)cc1N1C(=O)/C(=C\c2ccccc2)SC1c1cc(OC)c(OC)c(OC)c1 (stereo not given)	> 100 µM	29.5 µM	> 100	48.3 µM	41 µM	> 100 µM	> 100	> 100	> 100 µM	> 100 µM	–	–	–	–	–	–	–
CN(C)CCNC(=O)c1cc(Cl)cc2cc3ccccc3nc12	3.88 µM	7 µM	–	3.89 µM	5.82 µM	16 µM	–	–	1.98 µM	–	–	–	–	–	–	–	–
C=C(C)[C@@H]1CCC2=C[C@H](C/C(C)=C\C3=CC(C)=C(O3)[C@H]1O)OC2=O	> 100 µM	–	–	> 100 µM	> 100 µM	> 100 µM	> 100	> 100	> 100 µM	> 100 µM	–	–	–	–	–	–	–
